{"source": "patent US6649797B2", "about": "“Compounds and methods of use to treat infectious diseases” (The Picower Institute for Medical Research, priority 1996, dated 2003)", "key": {"[1]": {"test_system": "HIV-1 pre-integration complexes / karyopherin α", "experiment": "Binding of HIV-1 pre-integration complexes to GST-karyopherin α", "assay_type": "biochemical", "experimental": "Cytoplasmic lysates of H9 cells infected with HIV-1RF (upper panel) or HIV-like pseudovirions (bottom panel) were treated for 2 hours with various concentrations of CNI-H0294, and were then mixed with GST-karyopherin α immobilized on glutathione Sepharose beads. HIV-1 DNA or RNA that co-precipitated with karyopherin α was quantified as in A and B.\nCytoplasmic lysates prepared from H9 cells infected with HIV-1RF were treated with 10 μM CNI-H3094 (lane 1) or with 1 μM CNI-H0294 and 10 μM (lane 5), 5 μM (lane 4), 1 μM (lane 3), or no CNI-H3094 (lane 2). The amount of pre-integration complexes available for interaction with karyopherin α was quantified as in FIG. 10.\nH9 cells were infected with equal amounts of wild-type HIV-1NLHX or with mutant HIV-1NLHX that lack Vpr (Vpr^−) or carry a mutation that inactivates the MA NLS (MA NLS^−). Infected cells were washed and incubated for 4 h. An aliquot of each sample was used to quantify the total HIV-1 DNA (FIG. 14A) and the rest was used to prepare cytoplasmic extracts. Extracts were incubated with 1 μM CNI-H0294 (FIG. 14B, lanes 2, 4, 6, 8) or were left untreated (lanes 1, 3, 5, 7). The amount of pre-integration complexes available for binding to karyopherin α was determined as in FIG. 10.\nH9 cells were infected with HIV-1 or HIV-like pseudovirions (Haffar, et al., 1990, J. Virol., 64:2653-2659) at a multiplicity adjusted according to p24 content (50 ng p24 per 10^6 cells) The MA NLS^− virus contains substitutions of isoleucine residues for lysines in positions 26 and 27 of MA in an NLHX backbone (Westervelt., et al., 1992, J. Virol. 66:2577-2582), thus inactivating the NLS. The Vpr^− virus has the initiating ATG of the vpr gene changed to GTG, thus abolishing expression of this gene. The ΔMA NLS pseudovirions have leucine substituting for lysine in position 28 of MA. This mutation abrogates nuclear translocation of HIV-1 gag RNA in growth-arrested H9 cells infected with pseudovirions. After a 1 hour absorption, excess viruses or pseudovirions were washed away, and cells were incubated for an additional 2-3 hour period at 37° C. prior to analysis.\nCytoplasmic extracts were prepared by lysing cells in cold extraction buffer (10 mM KCl, 10 mM Tris-HCl [pH 7.6], 0.5 mM MgCl2, 1 μg/ml each of leupeptin and aprotinin, and 1 MM phenylmethylsulfonyl fluoride [PMSF]) by 20-30 strokes of a Dounce homogenizer under the control of phase-contrast microscopy. After removal of nuclei, cytoplasmic extract was cleared by centrifugation at 15,000 g for 10 min.\nCytoplasmic extracts prepared from HIV-1-or pseudovirion-infected H9 cells were adjusted to 0.14 M NaCl, 0.1% Tween 20 and precleared with glutathione-Sepharose beads for 30 min. at room temperature. Karyopherin α was expressed as a fusion protein with glutathione S-transferase (GST) which can bind glutathione beads in solution. GST-karyopherin α immobilized on Sepharose beads was then added (about 50 μg of immobilized karyopherin α per extract from 108 infected cells) and the mixture was incubated at room temperature for another 30 min. Beads were then pelleted by centrifugation and washed 3 times with PBS supplemented with 0.1% Tween 20, 1 μg/ml each of leupeptin and aprotinin, and 1 mM PMSF. HIV-1 DNA was isolated from the beads by SDS-proteinase K treatment with subsequent phenol-chloroform extraction, while pseudovirion gag RNA was isolated by RNazol (Biotecx Laboratories Inc.)."}, "[2]": {"test_system": "HIV-1ADA", "experiment": "Anti-HIV activity in primary human monocytes, day 9 (Table IX, FIG. 12C)", "assay_type": "cell-based", "experimental": "Monocytes infected with HIV-1ADA were cultured in the presence of CNI-H0294 and CNI-H3094 in various concentrations. Nine days after infection, RT activity in culture supernatants was quantified. The results are presented as percent of total RT activity in untreated cultures (control). Three independent samples were assayed for each drug concentration, and the standard deviation was less than 15%.\n[…] A 50% inhibitory concentration (IC50) was determined at day 9 after infection."}, "[3]": {"biological_target": "T1, recombinant RT (p51/p66 heterodimer) (Human immunodeficiency virus type 1 group M subtype B, UniProt P04585)", "T1 construct": "recombinant MA or RT (a p51/p66 heterodimer)", "experiment": "Binding of [14C]-CNI-H0294 to recombinant RT in solution (immunoprecipitation)", "parameters": "species or system HIV-1", "conditions": "0.2 μM RT, 3.3 μM labeled CNI-H0294, increasing unlabeled compound", "experimental": "Twenty nmol of [^14C]-CNI-HO294 were mixed with 0.28 nmol of recombinant MA or RT (a p51/p66 heterodimer) in 40 μl of binding buffer. Samples were incubated for 2 h at 37° C. in the presence or absence of 200 nmol of unlabeled CNI-H0294. MA and RT proteins were immunoprecipitated using protein G agarose and sheep polyclonal anti-MA (αMA) or rabbit anti-RT (αRT) sera, respectively. Pre-immune sera (PI) was used as control. Bound material was eluted from protein G using 0.1 M glycine buffer [pH 2.8] and the radioactivity in the eluate was quantified in a scintillation counter.\nRecombinant RT (0.2 μM) was incubated with 3.3 μM of [^14C ]-labeled CNI-H0294 and increasing concentrations of unlabeled (cold) CNI-3094. The amount of [^14C]-CNI-H0294 that bound to RT was measured as in FIG. 11.\n0.28 nanomoles of recombinant MA or RT [p66/p51 ] dimer were mixed with 20 nmol of [^14C] CNI-HO294 (specific activity 5×10^4 cpm/nmol) and incubated 2 hr at room temperature in 40 μl of binding buffer (PBS supplemented with 1% BSA, 0.1% Tween 20, 1 μg/ml leupeptin, 1 μg/ml aprotinin, 1 mM PMSF). Sheep anti-MA or rabbit anti-RT sera (both obtained from NIH AIDS Research and Reference Reagent Program) or pre-immune control sera were then added (at 1:100 dilution) and incubation continued for another 1 hr at room temperature. Immune complexes were precipitated with protein G-agarose, washed, and then eluted with 0.1 M glycine, pH 2.8. Radioactivity of the eluate was measured in a scintillation counter."}}, "note": "pIC50: −log10 of the molar value."}
{"smiles": "COC(=O)c1cc(Nc2cc(C)nc(N)n2)cc(C(=O)OC)c1", "note": "[CNI-H3094]", "values": [{"measurement": "inhibition of binding of HIV-1 pre-integration complexes to karyopherin α", "setting": "[1]; 10 μM alone (FIG. 12B, lane 1)", "value": "did not inhibit"}, {"measurement": "effect on CNI-H0294 inhibition of pre-integration complex binding to karyopherin α", "setting": "[1]; 5-fold excess over 1 μM CNI-H0294", "value": "reduced significantly the inhibitory effect of CNI-H0294"}, {"measurement": "effect on CNI-H0294 inhibition of pre-integration complex binding to karyopherin α", "setting": "[1]; 10-fold excess over 1 μM CNI-H0294", "value": "completely eliminated the inhibitory effect"}, {"measurement": "pIC50", "setting": "[2]; Human immunodeficiency virus 1, Monocyte, 216 h, day 9 after infection, >10 μM = 50% inhibition not achieved at maximal concentration, read-out: IC50", "value": "< 5.00"}, {"measurement": "effect on anti-HIV activity of CNI-H0294 in monocyte cultures", "setting": "[2]; RT activity nine days after infection (FIG. 12C)", "value": "eliminated the inhibitory effect of CNI-H0294 on HIV-1 replication"}, {"measurement": "competition with [14C]-labeled CNI-H0294 for binding to RT", "setting": "[3]", "value": "inhibits binding of [^14C]-labeled CNI-H0294 to RT in a dose-dependent manner"}]}
